Source: patent publication US8987257B2 (Novartis AG, priority 2011, dated 2015)

Tests used:
[1] = target: FRAP1/mTOR (Homo sapiens (Human), UniProt P42345); test: Test 2: mTOR Biochemical Assay (FRAP1/mTOR TR-FRET tracer assay); assay type: binding; conditions: mTOR Kinase Tracer 314
Procedure: IC50s for mTOR interacting compounds were assessed using the FRAP1/mTOR TR-FRET tracer assay (Invitrogen by Life Technologies). […] Compounds were serially diluted in DMSO (12-point, 4× dilution factor) and 1 μL of diluted compound was then added to each well and mixed by pipetting using a Biomek FX (Beckman Coulter).

[2] = test system: constitutively active mTOR; test: Test 3: TSC Assay (high content imaging of phospho-S6 (240/244) in TSC1−/− MEFs); assay type: cell-based; conditions: Mus musculus, pS6 240/244 staining, 2 hrs compound treatment
Procedure: This assay generates IC50 values for compounds that inhibit mTOR.
Quantification of pS6 Staining Using High-Content Imaging and Analysis
Day 0: Cell plating. Subconfluent TSC1−/− MEFs are harvested by trypsinization, resuspended in growth medium, and counted. […] The plates are briefly spun down and placed at 37° C. and 5% CO2. • 2. Day 1: Cell plates are washed into a PBS starve solution (contains glucose, sodium bicarbonate, HEPES and phenol red) using a 384-well plate washer. The wash protocol aspirates the volume down to 30 μL/well before dispensing 60 μL/well of the PBS starve solution. Aspiration and dispensing steps are repeated 8 times and a final volume of 30 μL/well is left. The cell plates are placed at 37° C. and 5% CO2 for 2 hrs. • Compound treatment. Compound dose responses are prepared in DMSO. The dose responses are then diluted 1:50 in medium. 10 ul of the diluted compound is added to 30 ul of cells, yielding a final 1:200 dilution of the original compound and final of 0.5% DMSO. Compound-treatments are performed in triplicates. The plates are placed at 37° C. and 5% CO2 for 2 hrs. Cells are then fixed by adding 10 μL/well 5× concentrated Mirsky's fixative. […] The cell plates are briefly spun down and incubated for 1 h at room temperature. Cells are then washed using a 384-well plate washer using a protocol which aspirates the volume down to 30 μL/well before dispensing 60 μL/well 1×TBS. Aspiration and dispensing steps are repeated 8 times and then an additional aspiration step leaves a final volume of 10 μL/well. Block buffer (1×TBS+0.1% Triton X-100+0.1% BSA) is then added at 25 μL/well and the plates are incubated at room temperature for 30 min. The cell plates are then aspirated down to 10 μL/well. […] Plates are incubated overnight at 4° C. • 3. […] The bottom of the plate is cleaned with 70% ethanol and then imaged using the InCell 1000 automated epifluorescence microscope. […] Cy5 images are acquired using an excitation of 620 nm (Chroma 620—60× filter), an emission of 700 nm (Chroma HQ700—75M filter) and an exposure time of 200 ms. A double band pass mirror is used for all images. • 4. Image analysis: The InCell Analysis software is used to analyze the images using the Dual Object algorithm. […] The Cy5 fluorescence intensity inside the collar is measured (cell intensity) and results are reported on an “Average per cell” basis. • 5. IC50 calculation: IC50s are calculated by plotting the cell intensity values on the y-axis with dose response values on the x-axis. IC50 values represent compound potency against mTOR.

[3] = test system: H4 mCherry-GFP-LC3 cells; test: Test 4: Autophagy Assay (mCherry-GFP-LC3 reporter, high-content imaging); assay type: cell-based; conditions: Homo sapiens, 16-18 h
Excerpt: Autophagy is a catabolic pathway that degrades bulk cytosol in lysosomal compartments enabling amino acids and fatty acids to be recycled. […] To quantify autophagy induction by mTOR inhibitors, we use a mCherry-GFP-LC3 reporter which is amenable to retroviral delivery into mammalian cells, stable expression and analysis by fluorescence microscopy.
Described hereinafter is an imaging protocol and image recognition algorithm to visualize and measure changes in the autophagic pathway.
Quantification of Autophagy Using High-Content Imaging and Analysis
• 1. Day 0: Cell plating. Subconfluent H4 mCherry-GFP-LC3 cells are harvested by trypsinization, resuspended in growth medium, and counted (H4 cells: Human neuroglioma cell line (ATCC)). A cell suspension of 66′000 cells/mL is prepared and 30 μL are added into the wells of a 384-well plate using an electronic multichannel pipette. […] The cell plates are briefly spun down and placed at 37° C. and 5% CO2. • 2. Day 1: Compound treatment. Compound dose responses are prepared in DMSO. The dose responses are then diluted 1:50 in medium. 10 ul of the diluted compound is added to 30 ul of cells, yielding a final 1:200 dilution of the original compound and final of 0.5% DMSO. Compound-treatments are performed in triplicates. The 384-well plates are placed at 37° C. and 5% CO2. Compound treatment is performed for 16-18 h (see Note 1). • 3. Day 2: Cell fixation. Cells are fixed by adding 10 μL/well 5× concentrated Mirsky's fixative supplemented with 25 μg/mL Hoechst33342. […] The 384-well plate is briefly spun down and incubated for 1 h at room temperature. Cells are then washed using a 384-well plate washer using a protocol which aspirates the volume down to 10 μL/well before dispensing 100 μL/well 1×TBS. Aspiration and dispensing steps are repeated 4 times and a final volume of 100 μL/well is left. The plate is sealed using an adhesive PCR foil. • 4. Imaging. The bottom of the plate is cleaned with 70% ethanol and then imaged using the InCell 1000 automated epifluorescence microscope. 20× magnification is used and 4 different areas (fields) are imaged per well, this typically captures a total of around 400 cells per well. Hoechst33342 images are acquired using an excitation of 360 nm (D360—40× filter), an emission of 460 nm (HQ460—40M filter) and an exposure time of 150 ms. GFP images are acquired using an excitation of 475 nm (S47520× filter), an emission of 535 nm (HQ535—50M filter) and an exposure time of 1 s. mCherry images are acquired using an excitation of 535 nm (HQ535—50× filter), an emission of 620 nm (HQ620—60M filter) and an exposure time of 1 s. A quadruple band pass mirror is used for all images. • 5. Image analysis. The InCell Analysis software is used to analyze the images using the Multi Target Analysis algorithm. First, nuclei are detected in the Hoechst33342 image using top-hat segmentation and a minimal nuclear area of 50 μm^2. Cells are defined using a collar of 10 μm around the nuclei. Second, puncta (organelles) are identified in the mCherry image inside the cells using multi-top-hat segmentation. Third, the mask of the mCherry puncta is transferred onto the GFP image. Fourth, the GFP fluorescence intensity inside the mCherry puncta mask is measured (reference intensity). • 6. The ‘organelles’ parameter reflects mCherry-positive puncta of the mCherry-GFP-LC3 reporter and is used to calculate ‘LC3 puncta/cell’. For this purpose, the number of organelles is calculated per cell and averaged over all the cells in a given well (average per cell basis). mCherry-positive LC3 puncta numbers (y-axis) are plotted against the compound dose response values (x-axis) and EC50 values are calculated for each compound. EC50 values represent compound potency in terms of autophagy activation (e.g. increase in mCherry-positive LC3 puncta count). Notes • 1. Autophagy-modulation and redistribution of mCherry-GFP-LC3 can be already observed after a compound treatment time of 3-4 h. […]

[4] = target: PI3Kα (Homo sapiens (Human), UniProt P42336); test: Test 1: PI3 Kinase Assay (PI3K KinaseGlo assay); assay type: biochemical; conditions: 1 μM ATP
Procedure: L-a-phosphatidylinositol (PI), provided as 10 mg/ml solution in methanol, was transferred into a glass tube and dried under nitrogen beam. It was then resuspended in 3% OctylGlucoside (OG) by vortexing and stored at 4° C. The KinaseGlo Luminescent Kinase Assay (Promega, Madison/WI, USA) is a homogeneous HTS method of measuring kinase activity by quantifying the amount of ATP remaining in solution following a kinase reaction.
Kinase reactions were started by addition of 5 μl of ATP-mix containing in a final volume 10 μL 10 mM TRIS-HCl pH 7.5, 3 mM MgCl2, 50 mM NaCl, 0.05% CHAPS, 1 mM DTT and 1 μM ATP, and occurred at room temperature.
The PI3Kα construct is a fusion of p85α iSH2 domain and the respective p110 isoform. The p85α fragment and p110 isoform gene were generated by PCR from first strand cDNA generated by RT-PCR from commercial RNA from placenta, testis and brain as described below.
The p85 fragment was derived from plasmid p1661-2 digested with Nhe/Spe. The p110α fragment derived from its clone was verified by sequencing and used in LR410 as a SpeI/HindIII fragment. For the generation of the baculovirus expression vector LR410 the gateway LR reaction to transfer the insert into the Gateway adapted pBlueBac4.5 (Invitrogen) vector was used. The cloning vector pBlueBac4.5 (Invitrogen) was digested with Nhe/HindIII. […] The two reverse primers overlap and incorporate a 12×Gly linker and the N-terminal sequence of the p110α gene to the SpeI site. The PCR fragment was cloned into pCR2.1 TOPO (Invitrogen). Of the resulting clones, p1661-2 was determined to be correct by sequencing. This plasmid was digested with Nhe and SpeI and the resulting fragment was gel-isolated and purified for sub-cloning.
PI3Kα was purified in two chromatographic steps: immobilized metal affinity chromatography (IMAC) on a Ni sepharose resin (GE Healthcare) and gel filtration utilizing a Superdex 200 26/60 column (GE Healthcare). All buffers were chilled to 4° C. and lysis was performed chilled on ice. Column fractionation was performed at room temperature.

[5] = Table 4 (unit inferred), mCherry-positive LC3 puncta/cell
[6] = Table 1, mCherry-positive LC3 puncta/cell

PI3Kα, sequence (P42336 other isoform, or with tags, fused parts or gaps): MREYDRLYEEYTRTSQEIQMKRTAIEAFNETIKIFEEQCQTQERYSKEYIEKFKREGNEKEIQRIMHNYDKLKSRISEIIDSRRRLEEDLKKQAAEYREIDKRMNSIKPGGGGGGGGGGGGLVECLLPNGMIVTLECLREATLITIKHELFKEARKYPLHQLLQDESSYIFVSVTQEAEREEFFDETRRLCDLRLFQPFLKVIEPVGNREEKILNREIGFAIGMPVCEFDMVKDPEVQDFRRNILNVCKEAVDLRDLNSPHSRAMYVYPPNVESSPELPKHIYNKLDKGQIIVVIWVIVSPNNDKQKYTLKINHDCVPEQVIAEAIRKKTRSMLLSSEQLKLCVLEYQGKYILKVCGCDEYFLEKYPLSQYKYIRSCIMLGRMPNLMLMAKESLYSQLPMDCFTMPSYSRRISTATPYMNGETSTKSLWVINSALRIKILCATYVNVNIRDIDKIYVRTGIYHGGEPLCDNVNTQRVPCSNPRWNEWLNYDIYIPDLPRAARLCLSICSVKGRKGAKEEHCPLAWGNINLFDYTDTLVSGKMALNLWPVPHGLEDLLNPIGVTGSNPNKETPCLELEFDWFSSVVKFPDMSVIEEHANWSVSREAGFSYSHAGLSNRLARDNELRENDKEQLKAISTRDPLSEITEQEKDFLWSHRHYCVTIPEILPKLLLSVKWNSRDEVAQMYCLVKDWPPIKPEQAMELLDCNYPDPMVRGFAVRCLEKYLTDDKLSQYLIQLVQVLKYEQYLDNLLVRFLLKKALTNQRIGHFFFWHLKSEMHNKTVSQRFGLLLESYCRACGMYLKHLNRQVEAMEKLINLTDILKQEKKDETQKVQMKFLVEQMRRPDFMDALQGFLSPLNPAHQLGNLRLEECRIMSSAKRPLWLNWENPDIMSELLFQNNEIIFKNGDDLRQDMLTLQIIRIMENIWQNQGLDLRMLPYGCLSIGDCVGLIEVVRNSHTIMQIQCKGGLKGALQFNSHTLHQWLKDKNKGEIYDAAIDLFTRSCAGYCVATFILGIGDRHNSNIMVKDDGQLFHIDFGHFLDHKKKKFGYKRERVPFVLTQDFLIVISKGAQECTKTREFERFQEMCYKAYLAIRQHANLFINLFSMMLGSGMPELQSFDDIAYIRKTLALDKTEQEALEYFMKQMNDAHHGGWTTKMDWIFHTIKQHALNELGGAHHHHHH
FRAP1/mTOR, sequence (P42345 1360-2549): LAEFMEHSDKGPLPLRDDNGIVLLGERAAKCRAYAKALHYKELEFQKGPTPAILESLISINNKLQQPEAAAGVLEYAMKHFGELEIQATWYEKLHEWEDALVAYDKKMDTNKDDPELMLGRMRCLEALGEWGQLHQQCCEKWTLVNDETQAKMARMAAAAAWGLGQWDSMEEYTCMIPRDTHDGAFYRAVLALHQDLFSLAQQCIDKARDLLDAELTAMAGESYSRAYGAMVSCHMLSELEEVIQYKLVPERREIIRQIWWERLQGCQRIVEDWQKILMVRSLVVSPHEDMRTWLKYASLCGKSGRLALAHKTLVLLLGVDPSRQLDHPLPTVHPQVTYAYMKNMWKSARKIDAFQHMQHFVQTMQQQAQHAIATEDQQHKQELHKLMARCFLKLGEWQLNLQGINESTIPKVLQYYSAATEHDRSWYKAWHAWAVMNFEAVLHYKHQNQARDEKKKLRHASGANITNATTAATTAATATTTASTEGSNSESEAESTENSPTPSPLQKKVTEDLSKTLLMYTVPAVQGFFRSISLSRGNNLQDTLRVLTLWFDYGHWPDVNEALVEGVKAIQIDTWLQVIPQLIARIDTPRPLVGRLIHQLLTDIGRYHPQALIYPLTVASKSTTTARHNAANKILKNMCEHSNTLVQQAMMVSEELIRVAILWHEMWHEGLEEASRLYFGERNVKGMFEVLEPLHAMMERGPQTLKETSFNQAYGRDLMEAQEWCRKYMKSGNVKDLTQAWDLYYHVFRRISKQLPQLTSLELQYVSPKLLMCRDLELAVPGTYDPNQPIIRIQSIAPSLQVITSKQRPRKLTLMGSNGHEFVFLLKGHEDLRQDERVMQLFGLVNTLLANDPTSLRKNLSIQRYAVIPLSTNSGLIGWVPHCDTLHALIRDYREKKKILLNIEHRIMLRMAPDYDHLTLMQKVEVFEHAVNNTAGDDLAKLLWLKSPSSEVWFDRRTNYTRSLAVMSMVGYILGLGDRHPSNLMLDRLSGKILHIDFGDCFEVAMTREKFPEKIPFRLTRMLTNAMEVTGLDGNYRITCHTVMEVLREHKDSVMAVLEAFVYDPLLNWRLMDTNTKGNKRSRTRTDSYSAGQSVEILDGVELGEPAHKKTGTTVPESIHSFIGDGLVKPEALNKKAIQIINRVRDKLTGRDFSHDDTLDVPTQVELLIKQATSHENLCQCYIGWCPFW

Row | SMILES | IC50 [1] [nM] | IC50 [2] [nM] | EC50 [3, 5] [nM] | IC50 [4] [µM] | EC50 [3, 6] [nM]
1 | CC1(C)COCCN1c1nc(N2CCOCC2)nc2[nH]c(-c3ccc4cc[nH]c4c3)nc12 [Example 39, 6-(3,3-Dimethyl-morpholin-4-yl)-8-(1H-indol-6-yl)-2-morpholin-4-yl-9H-purine] | 160 | 146 | 2320 | 2.53 | 
2 | C[C@@H]1COCCN1c1nc(N2CCOC[C@H]2C)c2nc(-c3cccc4c3CCN4)[nH]c2n1 [Example 42, 8-(2,3-Dihydro-1H-indol-4-yl)-2,6-bis-((R)-3-methyl-morpholin-4-yl)-9H-purine] | 40 | 99 | 4630 | 4.91 | 
3 | C[C@H]1COCCN1c1nc(N2CCOC[C@@H]2C)c2nc(-c3ccc4cc[nH]c4c3)[nH]c2n1 [Example 14, 8-(1H-Indol-6-yl)-2,6-bis-((S)-3-methyl-morpholin-4-yl)-9H-purine] | 7 | 349 |  | > 9.1 | 1280
4 | c1cc(-c2nc3c(N4C[C@@H]5C[C@H]4CO5)nc(N4CCOCC4)nc3[nH]2)c2cc[nH]c2c1 [Example 50, 8-(1H-Indol-4-yl)-2-morpholin-4-yl-6-(1S,4S)-2-oxa-5-aza-bicyclo[2.2.1]hept-5-yl-9H-purine] | 1200 | 920 | 8670 | 4.22 | 
5 | C[C@H]1COCCN1c1nc(N2CC3CCC(C2)O3)nc2[nH]c(-c3cccc4[nH]ccc34)nc12 [Example 52, 8-(1H-Indol-4-yl)-6-((S)-3-methyl-morpholin-4-yl)-2-(8-oxa-3-aza-bicyclo[3.2.1]oct-3-yl)-9H-purine] | 50 | 88 | 386 | 0.42 | 
6 | C[C@@H]1COCCN1c1nc(N2CCOC[C@H]2C)c2nc(-c3ccc4cc[nH]c4c3)[nH]c2n1 [Example 45, 8-(1H-Indol-6-yl)-2,6-bis-((R)-3-methyl-morpholin-4-yl)-9H-purine] | 650 | 989 | > 400 | 7.08 | 
7 | C[C@@H]1COCCN1c1nc(N2CCOC[C@@H]2C)c2nc(-c3cccc4[nH]ccc34)[nH]c2n1 [Example 18, 8-(1H-Indol-4-yl)-2-((R)-3-methyl-morpholin-4-yl)-6-((S)-3-methyl-morpholin-4-yl)-9H-purine] | 46 | 70 |  | 5.05 | 2500
8 | Oc1cccc(-c2cc3c(N4CCOCC4)nc(N4CCOCC4)nc3[nH]2)c1 [Example 2, 3-(2,4-Di-morpholin-4-yl-7H-pyrrolo[2,3-d]pyrimidin-6-yl)-phenol] | 40 | 300 |  | 1.06 | 363
9 | c1cc2ccc(-c3nc4c(N5CCOCC5)nc(N5CCOCC5)nc4[nH]3)cc2[nH]1 [Example 28, 8-(1H-Indol-6-yl)-2,6-di-morpholin-4-yl-9H-purine] | 372 | 458 |  | 9.05 | > 200
10 | c1cc(-c2nc3c(N4CCOCC4)nc(N4CCOCC4)nc3[nH]2)c2cn[nH]c2c1 [Example 27, 8-(1H-Indazol-4-yl)-2,6-di-morpholin-4-yl-9H-purine] | 340 | 7190 |  | 0.04 | 5930
11 | C[C@H]1COCCN1c1nc(N2CCOC[C@@H]2C)c2nc(-c3ccnc4[nH]ccc34)[nH]c2n1 [Example 3, 2,6-Bis-((S)-3-methyl-morpholin-4-yl)-8-(1H-pyrrolo[2,3-b]pyridin-4-yl)-9H-purine] | 510 | 2320 |  | 6.53 | > 2000
12 | COC1CCN(c2nc(N3CCOCC3)c3nc(-c4cccc5[nH]ccc45)[nH]c3n2)CC1 [Example 25, 8-(1H-Indol-4-yl)-2-(4-methoxy-piperidin-1-yl)-6-morpholin-4-yl-9H-purine] | 172 | 452 |  | 2.07 | > 700
13 | CC1(C)COCCN1c1nc(N2CCOCC2)nc2[nH]c(-c3cccc4[nH]ccc34)nc12 [Example 40, 6-(3,3-Dimethyl-morpholin-4-yl)-8-(1H-indol-4-yl)-2-morpholin-4-yl-9H-purine] | 350 | 841 | > 8000 | 6.47 | 
14 | CC(O)c1cccc(-c2nc3c(N4CCOC[C@@H]4C)nc(N4CCOCC4)nc3[nH]2)c1 (stereo partly drawn) [Example 12, 1-{3-[6-((S)-3-Methyl-morpholin-4-yl)-2-morpholin-4-yl-9H-purin-8-yl]-phenyl}-ethanol] | 2020 | 1960 |  | 2.87 | > 10000
15 | COc1cc(CO)cc(-c2nc3c(N4CCOC[C@@H]4C)nc(N4CCOC[C@@H]4C)nc3[nH]2)c1 [Example 17, {3-[2,6-Bis-((S)-3-methyl-morpholin-4-yl)-9H-purin-8-yl]-5-methoxy-phenyl}-methanol] | 399 | 1510 |  | 0.4 | 3190
16 | c1cc(-c2nc3c(N4CC5CCC(C4)O5)nc(N4CCOCC4)nc3[nH]2)c2cc[nH]c2c1 [Example 8, 8-(1H-Indol-4-yl)-2-morpholin-4-yl-6-(8-oxa-3-aza-bicyclo[3.2.1]oct-3-yl)-9H-purine] | 41 | 127 |  | > 9.1 | 731
17 | C[C@@H]1COCCN1c1nc(N2CCOC[C@H]2C)c2nc(-c3cccc4[nH]ccc34)[nH]c2n1 [Example 15, 8-(1H-Indol-4-yl)-2,6-bis-((R)-3-methyl-morpholin-4-yl)-9H-purine] | 9 | 62 |  | 4.58 | 1780
18 | C[C@@H]1COCCN1c1nc(N2CCOCC2)c2nc(-c3cccc4[nH]ccc34)[nH]c2n1 [Example 47, 8-(1H-Indol-4-yl)-2-((R)-3-methyl-morpholin-4-yl)-6-morpholin-4-yl-9H-purine] | 60 | 111 | 461 | 0.06 | 
19 | c1cc2ccc(-c3nc4c(N5C[C@@H]6C[C@H]5CO6)nc(N5CCOCC5)nc4[nH]3)cc2[nH]1 [Example 48, 8-(1H-Indol-6-yl)-2-morpholin-4-yl-6-(1S,4S)-2-oxa-5-aza-bicyclo[2.2.1]hept-5-yl-9H-purine] | 1010 | 1460 | 6410 | 4.3 | 
20 | CC(=O)Nc1cccc(-c2nc3c(N4CCOCC4)nc(N4CCOCC4)nc3[nH]2)c1 [Example 30, N-[3-(2,6-Di-morpholin-4-yl-9H-purin-8-yl)-phenyl]-acetamide] | 1450 | 1520 |  | 3.01 | > 2000
21 | COc1ccc(-c2nc3c(N4CCOC[C@@H]4C)nc(N4CCOCC4)nc3[nH]2)cc1C(=O)O [Example 9, 2-Methoxy-5-[6-((S)-3-methyl-morpholin-4-yl)-2-morpholin-4-yl-9H-purin-8-yl]-benzoic acid] | 3200 | 7300 |  | > 9.1 | > 10000
22 | c1cc2ncc(-c3nc4c(N5CCOCC5)nc(N5CCOCC5)nc4[nH]3)cc2[nH]1 [Example 13, 2,6-Di-morpholin-4-yl-8-(1H-pyrrolo[3,2-b]pyridin-6-yl)-9H-purine] | 469 | 2780 |  | 0.43 | 8530
